# Results: patent US20100196342A1, “MOOD, MEMORY AND COGNITIVE FUNCTION WITH PYRIDOXAL 5'-PHOSPHATE” (priority 2007, published 2010)
# Legend:
# healthy people = conditions: U.S. National Academy of Sciences recommendation; cited from earlier work
# healthy subjects = assay: Phase I single ascending dose study, safety and tolerance; assay type: in vivo, human; conditions: single oral dosages up to 4000 mg
# Description: A Phase I, single center, single-dose, open-label, sequential ascending dose study to evaluate the safety and tolerance of pyridoxal-5′-phosphate, in an enteric-coated tablet, following a single dose of 250 mg, 750 mg, 1000 mg, and 4000 mg in healthy subjects under fasting conditions was conducted.
# A total of 32 healthy, adult subjects signed the study-specific Informed Consent Form and were confined in the clinical study unit; of these subjects, 24 (6 subjects in each dose level; 3 males and 3 females) were dosed and were enrolled in the study; all of these enrolled subjects completed the study. Subjects were confined to the SFBC Anapharm Clinical Research Facility from at least 12 hours prior to drug administration until after the 24.0-hour post-dose blood draw.
# Subjects enrolled in this study were members of the community at large. […] All participating subjects were judged eligible for the study when assessed against the inclusion and exclusion criteria. […]
# [1] = test system: Individuals diagnosed with mild depression; assay: Assessment of level of depression by depression inventory scales and DSM-IV; assay type: in vivo, human
# Description: Individuals diagnosed with mild depression are divided into four groups at random: control, low dose of P5P (100 mg/day), medium dose of P5P (250 mg/day), and high dose of P5P (750 mg/day). All dosages are administered orally for 3 weeks.
# The level of depression of the individuals is assessed, both before, and after treatment, using conventional methodologies. These include completion of several depression inventory questionnaire scales including the Cornell Scale for Depression in Dementia, Centre for Epidemiologic Studies Depression Scale, The Geriatric Depression Scale (Short Version), Beck Depression Inventory and the Zung Self-Rating Depression Scale as well as diagnosis by a trained professional according to the DSM-IV. These questionnaires measure depression through questions related to appetite, sadness, worthlessness/inadequacy, concentration, exhaustion, failure, retardation, socialization, isolation, anxiety, irritability, agitation, loss of interest, lack of energy, diurnal mood variation, insomnia, suicidal thoughts, low self-esteem, pessimism, mood congruent delusions, satisfaction, withdrawal, fulfillment, mood, fear, guilt, self-accusations, somatic preoccupation and loss of libido.
# P2 purinoceptors = conditions: cited from earlier work
# [2] = test system: Human males aged between 65 and 90; assay: Associative learning task (colour-number association recall) in aged males; assay type: in vivo
# Description: Human males aged between 65 and 90 are separated into four random groups: control, low dose of P5P (100 mg/day), medium dose of P5P (250 mg/day), and high dose of P5P (750 mg/day). All dosages are administered orally for 3 weeks before subjecting the patients to an associative learning task.
# The patients are subjected to an associative learning task, as follows. Briefly, patients are comfortably seated in front of a computer. Patients are asked to learn the associations between six colors and the numbers 1-6, using trial and error. Subjects are then required to recall this association, a defined period of time after the associations are learned. Tests are repeated, with the defined period of time increasing, until the patients are no longer able to associate the colors with the numbers.
# males, ages 70-79 years = conditions: 20 mg daily for 3 months; cited from earlier work
# [3] = 250 mg/day vs 750 mg/day orally for 3 weeks
# [4] = P5P 100, 250 or 750 mg/day orally for 3 weeks
compound,measurement,setting,value
Cc1ncc(CO)c(CO)c1O [pyridoxine],Tolerable Upper Intake Level,healthy people,100 mg
"Cc1ncc(COP(=O)(O)O)c(C=O)c1O [P5P, 3-hydroxy-2-methyl-5-[(phosphonooxy)methyl]-4-pyridine-carboxaldehyde]","tolerability (side effects, evidence of toxicity)",healthy subjects,well tolerated
same,"level of depression, medium vs high dose group",[1]; [3],not significantly different
same,"level of depression, medium and high dose groups vs low dose group",[1]; 250 and 750 mg/day vs 100 mg/day orally for 3 weeks,significantly less depressed
same,level of depression vs control individuals,[1]; [4],significantly less depressed
same,effect on ATP induced calcium ion influx into cells,P2 purinoceptors,inhibits
same,"associative learning and memory, medium vs high dose group",[2]; [3],no significant difference
same,"time after which the number-colour association can be recalled, vs control patients",[2]; [4],significantly longer time
vitamin B6,information storage vs matched placebo group,"males, ages 70-79 years",improved information storage
